Data on one molecule can be found in US20080206149A1, “METHOD, DYE AND MEDICAMENT FOR STAINING THE INTERNAL LIMITING MEMBRANE, EPIRETINAL MEMBRANE, THE VITREOUS AND/OR THE CAPSULE OF AN EYE” (LUDWIG-MAXIMILIANS-UNIVERSITAT MUNCHEN, priority 2005, published 2008).

In the series the test system is epiretinal membranes, ILM and vitreous. Description: Vitreoretinal surgery for macular pucker (Example 4). Particulars: for staining effect of ERM: washed out after one minute. Format: in vivo, human. The source says: The study was approved by the local ethics committee and Institutional Review Board, and written informed consent was obtained from all patients. Thirteen patients with macular pucker, seven males and six females with a mean age of 65, were included in the present study.
Preoperatively and postoperatively, patients underwent a complete clinical examination including measurement of best corrected visual acuity (VA), slit-lamp examination, tonometry, funduscopy using a 78 diopter lens (Volk Optical, Mentor, Ohio, USA), fluorescein angiography, OCT (Stratus), Goldmann perimetry, multifocal ERG and fundus photograph. Patients were seen one day before surgery and then in six-week intervals. Postoperatively, ERG and Goldmann perimetry were performed at the six-week follow-up visit and were not repeated if unremarkable.
Bromphenol blue was dissolved and diluted using BSS plus and sterilised using a 0.22 μm syringe filter and dye concentrations of 0.2% were then injected into the eye.
Vitrectomy consisted of a standard three-port pars plana vitrectomy as described in previous reports (Haritoglou C., Gandorfer A., Gass C. A., et al., “Indocyanine green-assisted peeling of the internal limiting membrane in macular hole surgery affects visual outcome: a clinicopathologic correlation”, Am J. Ophthalmol 2002; 134:836-41; Haritoglou C., Gandorfer A., Gass C. A., et al.: “The effect of indocyanine-green on functional outcome of macular pucker surgery, Am J. Ophthalmol 2003; 135:328-37). Before injection of the dye, a fluid air-exchange was performed to avoid an uncontrolled dye distribution. Then, a few drops of the dye were applied over the macular area. After a period of one minute, the dye was completely washed out by irrigation. The staining characteristics were then evaluated by the surgeon and an additional examiner (CH). This was followed by removal of epiretinal tissue and the ILM using an end-gripping forceps. After the removal of epiretinal tissue, no second dye injection was performed in this series of patients.
All epiretinal tissue removed during surgery was harvested and immediately prepared for ultrastructural analysis. Ultrathin sections were obtained from all specimens, contrasted with uranyl acetate and lead citrate, and analysed using a Zeiss EM 9 electron microscope (Zeiss Jena, Germany).

Setting [1] is: 0.2%, listed as Bromphenol blue.
Setting [2] is: 0.2%, listed as bromphenol blue.

Entries after “also recorded” stand apart in the source; their conditions may differ.

For the molecule `O=S1(=O)OC(c2cc(Br)c(O)c(Br)c2)(c2cc(Br)c(O)c(Br)c2)c2ccccc21` [Bromophenol blue, Bromophenole blue], the “staining of the ILM” value (0.2%, patients with ERM) was “did not observe sufficient staining of the ILM”. In addition, under setting [1], the “staining effect of ERM” value is recorded as “varied depending on the thickness of the ERM” and the “staining of remnant vitreous at the vitreous base” value is recorded as “could he seen in all cases; also recorded: strong staining”. Moreover, under setting [2], the “staining effect of ERM” value was “good staining properties” and the “staining of remnant vitreous at the vitreous base” value is recorded as “good staining properties”. Besides, the “histology: cellular integrity of epiretinal cells” value (epiretinal membranes of 8 patients, electron microscopy) is given as “maintained their cellular integrity”. Besides, for the setting “in vivo”, the “amplitudes in postoperative ERG examinations” value is reported as “no affection of the amplitudes”, the “dye-related complications in any functional test performed” value is given as “No dye-related complications”, the “loss of VA” value was “No loss of VA” and the “peripheral visual field defects attributable to the dye” value is “nor did we observe peripheral visual field defects”. In addition, where the note is “in vivo”, the “safety profile intraoperatively and during follow-up” value is “very good safety profile”. Under “overall patients”, this molecule displayed a VA postoperatively of 0.32 and a VA preoperatively of 0.16.
